From ChEMBL document CHEMBL5442175, “EUbOPEN Chemogenomics Library - PDSP Secondary Binding” (2024)

Experiments:
[1] = target: D(1B) dopamine receptor (Homo sapiens, UniProt P21918); assay: (§1) PDSP Secondary Binding target: DRD5 - Compounds are tested at 10 uM concentration, plate are incubated at room temperature in the dark for 90 minutes. Reaction are stopped by vacuum filtration onto 0.3% polyethyleneimine soaked filter mats using Filtermate harvester. Scintillation cocktail is then melted onto microwave-dried filters on a hot plate and the radio activity is counted in Microbia counter.
Sequence of D(1B) dopamine receptor (P21918 whole entry): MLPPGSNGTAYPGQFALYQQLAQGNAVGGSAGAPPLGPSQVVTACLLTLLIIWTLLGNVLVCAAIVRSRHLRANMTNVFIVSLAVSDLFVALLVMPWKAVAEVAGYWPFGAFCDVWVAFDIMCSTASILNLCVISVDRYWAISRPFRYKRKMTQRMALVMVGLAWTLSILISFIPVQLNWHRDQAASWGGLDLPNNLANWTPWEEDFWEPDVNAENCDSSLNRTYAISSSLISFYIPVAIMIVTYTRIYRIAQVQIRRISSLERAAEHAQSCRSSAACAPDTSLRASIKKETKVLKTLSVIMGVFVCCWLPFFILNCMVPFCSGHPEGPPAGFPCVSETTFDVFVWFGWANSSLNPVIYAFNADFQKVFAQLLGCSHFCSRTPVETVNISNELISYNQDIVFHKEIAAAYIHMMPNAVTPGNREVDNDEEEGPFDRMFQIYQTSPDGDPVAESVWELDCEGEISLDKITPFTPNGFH

[2] = target: 5-hydroxytryptamine receptor 1D (Homo sapiens, UniProt P28221); assay: as §1, with “HTR1D” for “DRD5”
Sequence of 5-hydroxytryptamine receptor 1D (P28221 whole entry): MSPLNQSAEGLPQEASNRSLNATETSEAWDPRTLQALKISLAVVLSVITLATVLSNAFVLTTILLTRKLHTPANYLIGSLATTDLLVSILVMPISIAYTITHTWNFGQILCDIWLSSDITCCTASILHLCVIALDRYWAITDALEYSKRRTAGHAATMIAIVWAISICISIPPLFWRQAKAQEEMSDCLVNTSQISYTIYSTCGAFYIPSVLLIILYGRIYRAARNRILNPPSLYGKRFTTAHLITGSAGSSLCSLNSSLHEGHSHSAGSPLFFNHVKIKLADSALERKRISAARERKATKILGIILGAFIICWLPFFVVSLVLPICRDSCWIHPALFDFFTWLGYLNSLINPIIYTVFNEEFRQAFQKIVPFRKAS

[3] = target: 5-hydroxytryptamine receptor 7 (Homo sapiens, UniProt P34969); assay: as §1, with “HTR7” for “DRD5”
Sequence of 5-hydroxytryptamine receptor 7 (P34969 whole entry): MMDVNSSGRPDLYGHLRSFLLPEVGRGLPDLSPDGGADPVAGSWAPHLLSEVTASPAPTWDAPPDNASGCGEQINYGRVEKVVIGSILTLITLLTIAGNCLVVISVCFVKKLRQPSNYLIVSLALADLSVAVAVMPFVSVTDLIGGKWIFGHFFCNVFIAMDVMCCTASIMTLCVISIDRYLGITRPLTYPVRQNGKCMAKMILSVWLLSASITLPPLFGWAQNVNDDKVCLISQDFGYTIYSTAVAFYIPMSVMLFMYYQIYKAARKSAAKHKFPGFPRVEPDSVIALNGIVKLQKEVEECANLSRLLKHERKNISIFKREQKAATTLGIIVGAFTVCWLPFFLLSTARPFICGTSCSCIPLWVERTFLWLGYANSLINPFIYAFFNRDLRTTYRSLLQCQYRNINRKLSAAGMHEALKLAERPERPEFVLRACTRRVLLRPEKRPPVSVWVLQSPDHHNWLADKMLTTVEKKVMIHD

[4] = target: Sodium-dependent noradrenaline transporter (Homo sapiens, UniProt P23975); assay: as §1, with “SLC6A2” for “DRD5”
Sequence of Sodium-dependent noradrenaline transporter (P23975 whole entry): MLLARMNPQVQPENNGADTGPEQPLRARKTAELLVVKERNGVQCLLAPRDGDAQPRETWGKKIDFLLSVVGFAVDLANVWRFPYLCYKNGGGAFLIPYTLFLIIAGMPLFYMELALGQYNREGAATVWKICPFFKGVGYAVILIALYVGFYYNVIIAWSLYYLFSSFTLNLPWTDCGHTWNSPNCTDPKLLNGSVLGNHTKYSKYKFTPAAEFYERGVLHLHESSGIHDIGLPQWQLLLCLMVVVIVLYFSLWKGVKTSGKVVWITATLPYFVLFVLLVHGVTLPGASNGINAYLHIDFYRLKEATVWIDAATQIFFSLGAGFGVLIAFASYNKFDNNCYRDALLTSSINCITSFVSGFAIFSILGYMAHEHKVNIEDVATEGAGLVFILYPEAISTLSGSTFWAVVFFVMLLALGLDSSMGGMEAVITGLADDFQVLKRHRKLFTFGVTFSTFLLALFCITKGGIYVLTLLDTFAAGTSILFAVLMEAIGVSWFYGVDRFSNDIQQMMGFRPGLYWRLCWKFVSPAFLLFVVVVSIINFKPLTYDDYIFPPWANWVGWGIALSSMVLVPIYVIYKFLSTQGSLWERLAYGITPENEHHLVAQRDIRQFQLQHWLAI

[5] = target: Sigma non-opioid intracellular receptor 1 (Homo sapiens, UniProt Q99720); assay: as §1, with “SIGMAR1” for “DRD5”
Sequence of Sigma non-opioid intracellular receptor 1 (Q99720 whole entry): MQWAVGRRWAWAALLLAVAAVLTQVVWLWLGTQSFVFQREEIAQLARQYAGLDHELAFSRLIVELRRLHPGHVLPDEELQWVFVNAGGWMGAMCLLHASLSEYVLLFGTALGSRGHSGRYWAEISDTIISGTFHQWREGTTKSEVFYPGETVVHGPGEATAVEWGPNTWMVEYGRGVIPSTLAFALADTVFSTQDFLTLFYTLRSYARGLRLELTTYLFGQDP

[6] = target: T1, Alpha-1B adrenergic receptor (Homo sapiens, UniProt P35368); assay: as §1, with “ADRA1B” for “DRD5”
T1 sequence (P35368 whole entry): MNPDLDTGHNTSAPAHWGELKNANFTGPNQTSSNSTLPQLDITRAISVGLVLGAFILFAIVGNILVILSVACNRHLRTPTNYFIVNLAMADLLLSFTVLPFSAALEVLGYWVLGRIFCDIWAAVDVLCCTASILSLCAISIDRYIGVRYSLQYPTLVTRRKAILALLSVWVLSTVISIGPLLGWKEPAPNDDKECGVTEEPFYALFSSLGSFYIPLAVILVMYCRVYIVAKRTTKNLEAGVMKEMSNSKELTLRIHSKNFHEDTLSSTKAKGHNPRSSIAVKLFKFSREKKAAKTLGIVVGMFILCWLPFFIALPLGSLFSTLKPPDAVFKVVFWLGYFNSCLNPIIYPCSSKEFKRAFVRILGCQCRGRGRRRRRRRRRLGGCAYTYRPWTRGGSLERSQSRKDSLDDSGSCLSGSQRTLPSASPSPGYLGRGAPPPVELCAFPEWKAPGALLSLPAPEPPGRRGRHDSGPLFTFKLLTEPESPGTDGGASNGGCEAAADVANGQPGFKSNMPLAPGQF

[7] = target: D(3) dopamine receptor (Homo sapiens, UniProt P35462); assay: as §1, with “DRD3” for “DRD5”
Sequence of D(3) dopamine receptor (P35462 whole entry): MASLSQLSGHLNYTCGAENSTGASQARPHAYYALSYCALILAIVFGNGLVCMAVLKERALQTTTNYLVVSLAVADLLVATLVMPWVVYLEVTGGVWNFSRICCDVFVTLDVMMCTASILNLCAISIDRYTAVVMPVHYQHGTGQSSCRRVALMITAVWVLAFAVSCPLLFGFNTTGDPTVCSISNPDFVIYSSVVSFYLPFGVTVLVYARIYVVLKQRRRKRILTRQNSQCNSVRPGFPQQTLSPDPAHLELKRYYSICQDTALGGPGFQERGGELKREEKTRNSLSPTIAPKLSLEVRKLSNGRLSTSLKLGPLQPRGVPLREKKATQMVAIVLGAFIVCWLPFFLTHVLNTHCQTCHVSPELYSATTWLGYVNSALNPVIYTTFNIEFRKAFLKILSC

[8] = target: T2, Alpha-1D adrenergic receptor (Homo sapiens, UniProt P25100); assay: as §1, with “ADRA1D” for “DRD5”
T2 sequence (P25100 whole entry): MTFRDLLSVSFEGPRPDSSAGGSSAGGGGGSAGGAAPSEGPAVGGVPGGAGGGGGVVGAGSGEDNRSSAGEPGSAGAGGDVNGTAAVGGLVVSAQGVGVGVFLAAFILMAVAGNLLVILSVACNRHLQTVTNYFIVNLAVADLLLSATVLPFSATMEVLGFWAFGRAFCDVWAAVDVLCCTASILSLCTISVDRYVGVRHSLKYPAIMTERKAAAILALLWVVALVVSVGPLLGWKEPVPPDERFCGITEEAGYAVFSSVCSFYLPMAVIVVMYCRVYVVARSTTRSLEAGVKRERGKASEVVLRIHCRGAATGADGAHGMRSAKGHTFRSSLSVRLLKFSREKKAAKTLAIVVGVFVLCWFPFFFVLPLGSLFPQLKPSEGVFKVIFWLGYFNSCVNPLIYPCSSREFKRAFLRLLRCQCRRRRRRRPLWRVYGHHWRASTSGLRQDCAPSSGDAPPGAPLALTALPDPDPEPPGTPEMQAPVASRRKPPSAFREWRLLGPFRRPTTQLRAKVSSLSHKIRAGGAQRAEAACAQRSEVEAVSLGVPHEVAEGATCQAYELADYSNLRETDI

[9] = target: 5-hydroxytryptamine receptor 2A (Homo sapiens, UniProt P28223); assay: as §1, with “HTR2A” for “DRD5”
Sequence of 5-hydroxytryptamine receptor 2A (P28223 whole entry): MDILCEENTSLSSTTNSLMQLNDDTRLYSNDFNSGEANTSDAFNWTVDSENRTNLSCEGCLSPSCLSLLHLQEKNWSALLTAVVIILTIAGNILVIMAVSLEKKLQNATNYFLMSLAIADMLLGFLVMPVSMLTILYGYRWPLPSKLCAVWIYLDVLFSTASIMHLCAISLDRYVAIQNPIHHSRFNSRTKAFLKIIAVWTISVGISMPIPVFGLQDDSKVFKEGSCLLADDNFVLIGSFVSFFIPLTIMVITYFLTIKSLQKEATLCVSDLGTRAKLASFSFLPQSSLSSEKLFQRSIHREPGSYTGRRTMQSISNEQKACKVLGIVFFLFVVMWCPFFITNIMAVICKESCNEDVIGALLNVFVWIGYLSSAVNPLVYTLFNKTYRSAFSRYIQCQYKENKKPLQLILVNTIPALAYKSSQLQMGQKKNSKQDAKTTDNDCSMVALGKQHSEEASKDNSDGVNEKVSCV

[10] = target: 5-hydroxytryptamine receptor 6 (Homo sapiens, UniProt P50406); assay: as §1, with “HTR6” for “DRD5”
Sequence of 5-hydroxytryptamine receptor 6 (P50406 whole entry): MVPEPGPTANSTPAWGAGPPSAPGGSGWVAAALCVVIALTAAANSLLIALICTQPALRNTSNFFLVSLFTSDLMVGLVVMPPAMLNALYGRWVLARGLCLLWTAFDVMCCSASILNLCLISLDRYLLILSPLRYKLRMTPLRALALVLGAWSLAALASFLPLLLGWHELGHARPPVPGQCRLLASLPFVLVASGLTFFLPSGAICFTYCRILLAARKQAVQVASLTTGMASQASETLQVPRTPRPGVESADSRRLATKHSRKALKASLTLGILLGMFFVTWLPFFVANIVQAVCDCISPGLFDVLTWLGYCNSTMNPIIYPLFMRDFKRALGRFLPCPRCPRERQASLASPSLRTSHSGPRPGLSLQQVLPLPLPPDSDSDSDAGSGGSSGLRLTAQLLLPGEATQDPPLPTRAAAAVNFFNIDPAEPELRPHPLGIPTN

[11] = target: T3, Muscarinic acetylcholine receptor M1 (Homo sapiens, UniProt P11229); assay: as §1, with “CHRM1” for “DRD5”
T3 sequence (P11229 whole entry): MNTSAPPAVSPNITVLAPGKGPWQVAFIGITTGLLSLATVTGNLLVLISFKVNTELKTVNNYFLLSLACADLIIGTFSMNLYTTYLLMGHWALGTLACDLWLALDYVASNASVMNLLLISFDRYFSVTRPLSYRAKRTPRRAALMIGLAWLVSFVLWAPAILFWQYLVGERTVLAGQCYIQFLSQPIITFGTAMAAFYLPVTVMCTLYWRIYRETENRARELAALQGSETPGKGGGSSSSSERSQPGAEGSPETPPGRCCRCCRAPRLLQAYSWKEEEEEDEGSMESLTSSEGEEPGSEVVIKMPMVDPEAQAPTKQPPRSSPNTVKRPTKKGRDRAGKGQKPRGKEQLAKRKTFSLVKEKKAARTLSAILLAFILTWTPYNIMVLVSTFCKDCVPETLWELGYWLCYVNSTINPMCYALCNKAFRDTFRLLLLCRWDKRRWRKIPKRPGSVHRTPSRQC

[12] = target: Muscarinic acetylcholine receptor M3 (Homo sapiens, UniProt P20309); assay: as §1, with “CHRM3” for “DRD5”
Sequence of Muscarinic acetylcholine receptor M3 (P20309 whole entry): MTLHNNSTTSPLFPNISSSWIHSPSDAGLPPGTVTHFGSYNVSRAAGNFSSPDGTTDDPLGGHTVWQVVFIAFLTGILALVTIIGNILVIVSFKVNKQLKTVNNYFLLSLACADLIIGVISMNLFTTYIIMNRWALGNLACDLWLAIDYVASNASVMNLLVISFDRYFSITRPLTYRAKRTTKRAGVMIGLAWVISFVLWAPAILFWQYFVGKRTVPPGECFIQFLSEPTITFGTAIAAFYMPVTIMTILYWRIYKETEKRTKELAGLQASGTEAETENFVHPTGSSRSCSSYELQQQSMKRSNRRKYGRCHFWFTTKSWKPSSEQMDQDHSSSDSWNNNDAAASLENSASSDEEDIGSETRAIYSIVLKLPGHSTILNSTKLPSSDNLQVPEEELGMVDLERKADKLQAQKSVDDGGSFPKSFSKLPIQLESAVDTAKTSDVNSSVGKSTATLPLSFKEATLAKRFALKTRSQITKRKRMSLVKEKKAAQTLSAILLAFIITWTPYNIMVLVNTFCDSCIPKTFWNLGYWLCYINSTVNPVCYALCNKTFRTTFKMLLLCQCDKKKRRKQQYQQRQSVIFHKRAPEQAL

[13] = target: D(2) dopamine receptor (Homo sapiens, UniProt P14416); assay: as §1, with “DRD2” for “DRD5”
Sequence of D(2) dopamine receptor (P14416 whole entry): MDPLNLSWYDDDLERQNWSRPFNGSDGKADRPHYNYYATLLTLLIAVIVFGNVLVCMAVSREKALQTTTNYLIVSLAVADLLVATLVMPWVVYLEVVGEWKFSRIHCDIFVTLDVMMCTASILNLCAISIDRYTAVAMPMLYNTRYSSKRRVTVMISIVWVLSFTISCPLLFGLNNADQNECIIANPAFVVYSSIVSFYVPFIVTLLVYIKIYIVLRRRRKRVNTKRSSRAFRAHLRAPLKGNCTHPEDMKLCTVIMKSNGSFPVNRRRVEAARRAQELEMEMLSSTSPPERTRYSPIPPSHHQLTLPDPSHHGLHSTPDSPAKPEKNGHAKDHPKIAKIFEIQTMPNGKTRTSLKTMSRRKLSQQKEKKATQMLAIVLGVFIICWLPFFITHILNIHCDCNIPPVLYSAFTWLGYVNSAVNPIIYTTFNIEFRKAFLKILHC

[14] = target: T4, 5-hydroxytryptamine receptor 3A (Homo sapiens, UniProt P46098); assay: as §1, with “HTR3A” for “DRD5”
T4 sequence (P46098 whole entry): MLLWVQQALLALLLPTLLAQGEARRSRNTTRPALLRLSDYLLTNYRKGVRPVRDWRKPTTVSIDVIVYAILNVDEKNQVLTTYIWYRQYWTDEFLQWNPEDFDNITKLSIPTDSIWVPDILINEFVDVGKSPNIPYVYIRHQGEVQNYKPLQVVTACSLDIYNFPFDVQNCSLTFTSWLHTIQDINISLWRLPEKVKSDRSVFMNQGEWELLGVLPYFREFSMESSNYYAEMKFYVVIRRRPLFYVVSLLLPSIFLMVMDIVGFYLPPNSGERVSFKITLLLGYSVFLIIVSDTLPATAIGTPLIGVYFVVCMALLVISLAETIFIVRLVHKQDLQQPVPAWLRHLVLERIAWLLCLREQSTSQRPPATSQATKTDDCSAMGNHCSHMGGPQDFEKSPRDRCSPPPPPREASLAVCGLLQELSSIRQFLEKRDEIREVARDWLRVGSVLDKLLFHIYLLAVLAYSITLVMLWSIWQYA

[15] = target: Histamine H2 receptor (Homo sapiens, UniProt P25021); assay: as §1, with “HRH2” for “DRD5”
Sequence of Histamine H2 receptor (P25021 whole entry): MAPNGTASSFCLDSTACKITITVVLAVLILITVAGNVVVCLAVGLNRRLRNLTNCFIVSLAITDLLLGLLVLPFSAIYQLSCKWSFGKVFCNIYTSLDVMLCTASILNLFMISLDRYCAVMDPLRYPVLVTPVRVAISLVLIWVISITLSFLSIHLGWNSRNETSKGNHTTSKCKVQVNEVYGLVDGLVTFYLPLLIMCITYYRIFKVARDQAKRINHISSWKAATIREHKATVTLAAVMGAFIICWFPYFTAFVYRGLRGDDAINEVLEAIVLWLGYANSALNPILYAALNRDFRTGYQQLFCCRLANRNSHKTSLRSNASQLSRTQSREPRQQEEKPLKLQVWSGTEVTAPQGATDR

`CN1C2CCC1CC(OC(c1ccc(F)cc1)c1ccc(F)cc1)C2` (stereo not given) was tested, and the Ki [1] was 393 nM, the Ki [2] was 1130 nM and the Ki [3] was 126 nM. The Ki [4] was 769 nM, the Ki [5] was 98.8 nM and the Ki [6] was 263 nM. For the same molecule, the Ki [7] was 116 nM, the Ki [8] was 58.2 nM and the Ki [9] was 17.4 nM. It also gave a Ki [10] of 374 nM, a Ki [11] of 9.74 nM and a Ki [12] of 5.82 nM. For the same molecule, the Ki [13] was 767 nM, the Ki [14] was 2070 nM and the Ki [15] was 594 nM.
